As a reminder, the solubility is how much of the substance goes into solution per volume.

Data on six compounds can be found in patent US9895730B2, “Method for extraction and surfactant enhanced subsurface contaminant recovery” (priority 2007, dated 2018).

The conditions of series [1]: cited from earlier work.
Series [2] in a line: Chlorinated DNAPL dissolution experiments with Citrus Burst-3. It counts as physicochemical. Particulars: water, thermodynamic from solid, in presence of chlorinated DNAPL, without cosolvent-surfactant, 25° C., read-out: Observed Solubility in Control Sample. From the text:
In order to test the treatment of chlorinated compounds, a chlorinated solvent DNAPL was obtained from a site consisting of chlorinated solvents and chlorinated semi-volatile compounds. Composition of the chlorinated solvent DNAPL is presented based on determinations using USEPA Methods 8260 and 8270.
Carbon tetrachloride and tetrachloroethylene comprised more than 87 percent of the DNAPL. Being a saturated compound, carbon tetrachloride is generally a pervasive and difficult to degrade compound once introduced to the subsurface.

For series [3] the following is noted: cited from earlier work. This is another data set of the same source.

Like-named read-outs stand apart in the source and are kept apart here.

Turning to `Cc1ccc(C)c(C)c1` [1,2,4-Trimethybenzene], the “log Kow” value in series [1] (Table 2) is listed as 3.7.

Consider `Cc1ccc2ccccc2c1` [2-Methylnaphthalene], for which, in series [1] (Table 2), the “log Kow” value was 3.9.

As to `ClC(Cl)(Cl)Cl` [Carbon Tetrachloride (CTC), Carbon Tetrachloride], the solubility at 48 h in series [2] came out at 100 µg/mL. Moreover, in series [1] (Table 5), the “log Kow” value is 2.83. Besides, the “Pure Compound Aqueous Solubility” value in series [3] is given as 129 mg/L.

On to `CCc1ccccc1` [Ethylbenzene], for which the “log Kow” value in series [1] (Table 2) was 3.1.

For `ClC(Cl)=C(Cl)C(Cl)=C(Cl)Cl` [Hexachlorobutadiene (HCBD), Hexachlorobutadiene], the “log Kow” value in series [1] (Table 5) is given as 4.90.

For `Clc1c(Cl)c(Cl)c2c(Cl)c(Cl)c(Cl)c(Cl)c2c1Cl` [Octachloronaphthalene (OCN), Octachloronaphthalene], the “Pure Compound Aqueous Solubility” value in series [3] is listed as “insoluble”.
